Biological target: T1, DLK (Homo sapiens, UniProt Q12852)
T1 construct: N-terminally GST-tagged DLK (catalytic domain amino acid 1-520) (Carna Bioscience); GST (N); purchased Carna Bioscience
T1 sequence (Q12852 1-520): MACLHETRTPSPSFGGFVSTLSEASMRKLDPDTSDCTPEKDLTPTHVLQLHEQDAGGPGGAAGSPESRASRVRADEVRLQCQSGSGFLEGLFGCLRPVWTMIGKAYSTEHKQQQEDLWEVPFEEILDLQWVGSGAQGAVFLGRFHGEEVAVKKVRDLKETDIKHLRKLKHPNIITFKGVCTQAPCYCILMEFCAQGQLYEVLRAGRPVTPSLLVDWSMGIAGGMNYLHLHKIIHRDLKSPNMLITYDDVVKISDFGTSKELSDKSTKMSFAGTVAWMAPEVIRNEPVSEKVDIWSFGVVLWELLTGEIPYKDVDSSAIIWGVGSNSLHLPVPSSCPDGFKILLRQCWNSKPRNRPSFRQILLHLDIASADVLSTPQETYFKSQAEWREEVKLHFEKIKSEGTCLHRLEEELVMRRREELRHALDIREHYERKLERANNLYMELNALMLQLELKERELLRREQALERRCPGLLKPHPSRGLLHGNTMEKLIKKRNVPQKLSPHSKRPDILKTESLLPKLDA
Experiment: DLK TR-FRET assay
Format: biochemical
Conditions: 5 nM GST-tagged DLK (catalytic domain amino acid 1-520), 40 nM HIS-tagged MKK4 K131M substrate, 30 μM ATP, 60 minutes
Protocol: DLK TR-FRET assay: DLK kinase reactions (20 μL) containing 5 nM N-terminally GST-tagged DLK (catalytic domain amino acid 1-520) (Carna Bioscience), 40 nM N-terminally HIS-tagged MKK4 K131M substrate, and 30 μM ATP in kinase reaction buffer (50 mM HEPES, pH 7.5, 0.01% Triton X-100, 0.01% Bovine γ-Globulins, 2 mM DTT, 10 mM MgCl2 and 1 mM EGTA), and testing compound 1:3 serial diluted starting at 20 uM were incubated at ambient temperature for 60 minutes in 384 well OptiPlate (Perkin Elmer). To quench kinase reactions and detect phosphorylated MKK4, 15 μL of TR-FRET antibody mixture containing 2 nM anti-phosphorylated MKK4 labeled with Europium cryptate (Cisbio) and 23 nM anti-HIS labeled with D2 (Cisbio) in detection buffer (25 mM Tris pH 7.5, 100 mM NaCl, 100 mM EDTA, 0.01% Tween-20, and 200 mM KF) was added to the reaction mixture. The detection mixture was incubated for 3 hours at ambient temperature and the TR-FRET was detected with an EnVision multilabel plate reader (Perkin-Elmer) using the LANCE/DELFIA Dual Enh label from Perkin-Elmer (excitation filter: UV2 (TRF) 320 and emission filters: APC 665 and Europium 615).

Row | Ki [nM] | SMILES
1 | 12 | COc1cc(C2CCN(C(C)=O)CC2)cc(Nc2cc(C#N)ccn2)n1 [Example 21, 2-(1′-Acetyl-6-methoxy-1′,2′,3′,4′,5′,6′-hexahydro-[4,4′]bipyridinyl-2-ylamino)-isonicotinonitrile]
2 | 1.2 | CC(=O)N1CCC(c2cc(Nc3cc(C(F)(F)F)ccn3)nc(N3CCC(F)(F)C3)c2)CC1 [Example 143, 1-[2′-(3,3-Difluoro-pyrrolidin-1-yl)-6′-(4-trifluoromethyl-pyridin-2-ylamino)-3,4,5,6-tetrahydro-2H-[4,4′]bipyridinyl-1-yl]-ethanone]
3 | 0.2 | C[C@@H]1CCCN1c1cc(C2CCOCC2)cc(Nc2cc(C#N)ccn2)n1 [Example 123, 2-[6-((R)-2-Methyl-pyrrolidin-1-yl)-4-(tetrahydro-pyran-4-yl)-pyridin-2-ylamino]-isonicotinonitrile]
4 | 150 | Cc1cc(C2CCN(CC(F)(F)F)CC2)cc(Nc2cc(C#N)ccn2)n1 [Example 72, 2-[6-Methyl-1′-(2,2,2-trifluoro-ethyl)-1′,2′,3′,4′,5′,6′-hexahydro-[4,4′]bipyridinyl-2-ylamino]-isonicotinonitrile]
5 | 7 | N#Cc1ccnc(Nc2cc(C3CCN(C4COC4)CC3)cc(N3CCC3)n2)c1 [Example 105, 2-(6-Azetidin-1-yl-1′-oxetan-3-yl-1′,2′,3′,4′,5′,6′-hexahydro-[4,4′]bipyridinyl-2-ylamino)-isonicotinonitrile]
6 | 93 | CC(=O)N1CCC(c2cc(C)nc(Nc3cc(C#N)ccn3)c2)CC1 [Example 108, 2-(1′-Acetyl-6-methyl-1′,2′,3′,4′,5′,6′-hexahydro[4,4′]bipyridinyl-2-ylamino)-isonicotinonitrile]
7 | 4.6 | N#Cc1ccnc(Nc2cc(C3CCOCC3)cc(N3CCC4CC43)n2)c1 (stereo not shown) [Example 83, 2-[6-(2-Aza-bicyclo[3.1.0]hex-2-yl)-4-(tetrahydro-pyran-4-yl)-pyridin-2-ylamino]-isonicotinonitrile]
8 | 1200 | Cc1ccnc(Nc2cc(C3CCN(C(=O)[C@@H]4CCCCN4)CC3)ccn2)c1 [Example 147, (S)-(4-(2-((4-methylpyridin-2-yl)amino)pyridin-4-yl)piperidin-1-yl)(piperidin-2-yl)methanone]
9 | 140 | N#Cc1ccnc(Nc2cc(C3CN(C4COC4)C3)cc(Cl)n2)c1 [Example 24, 2-[6-Chloro-4-(1-oxetan-3-yl-azetidin-3-yl)-pyridin-2-ylamino]-isonicotinonitrile]
10 | 170 | CC(=O)N1CCC(c2cc(C)nc(Nc3cc(C(F)F)ccn3)c2)CC1 [Example 62, 1-[2′-(4-Difluoromethyl-pyridin-2-ylamino)-6′-methyl-3,4,5,6-tetrahydro-2H-[4,4′]bipyridinyl-1-yl]-ethanone]

Continued, molecule first:

Row | SMILES | Ki [nM]
11 | N#Cc1ccnc(Nc2cc(C3(C#N)CCNCC3)cc(N3CC(F)(F)C3)n2)c1 [Example 37, 2′-(4-Cyano-pyridin-2-ylamino)-6′-(3,3-difluoro-azetidin-1-yl)-2,3,5,6-tetrahydro-1H-[4,4′]bipyridinyl-4-carbonitrile] | 2.5
12 | N#Cc1ccnc(Nc2cc(C3(C#N)CCN(C4COC4)CC3)cc(N3CC4CC4C3)n2)c1 (stereo not shown) [Example 35, 6′-(3-Aza-bicyclo[3.1.0]hex-3-yl)-2′-(4-cyano-pyridin-2-ylamino)-1-oxetan-3-yl-2,3,5,6-tetrahydro-1H-[4,4′]bipyridinyl-4-carbonitrile] | 0.8
13 | N#Cc1ccnc(Nc2cc(C3(C#N)CCNCC3)cc(N3CCC(F)(F)C3)n2)c1 [Example 31, 2′-(4-Cyano-pyridin-2-ylamino)-6′-(3,3-difluoro-pyrrolidin-1-yl)-2,3,5,6-tetrahydro-1H-[4,4′]bipyridinyl-4-carbonitrile] | 0.17
14 | CC1CCCN1c1cc(C2CCN(CC3CCOCC3)C2)cc(Nc2cc(C#N)ccn2)n1 (stereo not shown) [Example 115, 2-{6-(2-Methyl-pyrrolidin-1-yl)-4-[1-(tetrahydro-pyran-4-ylmethyl)-pyrrolidin-3-yl]-pyridin-2-ylamino}-isonicotinonitrile] | 0.09
15 | C[C@@H]1CCCN1c1cc(C2CCN(S(C)(=O)=O)CC2)cc(Nc2cc(C(F)(F)F)ccn2)n1 [Example 139, [1′-Methanesulfonyl-6-((R)-2-methyl-pyrrolidin-1-yl)-1′,2′,3′,4′,5′,6′-hexahydro-[4,4′]bipyridinyl-2-yl]-(4-trifluoromethyl-pyridin-2-yl)-amine] | 6.6
16 | Cn1cc(-c2cc(C3CCOCC3)cc(Nc3cc(C(F)(F)F)ccn3)n2)cn1 [Example 122, [6-(1-Methyl-1H-pyrazol-4-yl)-4-(tetrahydro-pyran-4-yl)-pyridin-2-yl]-(4-trifluoromethyl-pyridin-2-yl)-amine] | 0.4
17 | FC(F)c1ccnc(Nc2cc(C3CCN(C4COC4)CC3)cc(C3CC3)n2)c1 [Example 25, (6-Cyclopropyl-1′-oxetan-3-yl-1′,2′,3′,4′,5′,6′-hexahydro-[4,4′]bipyridinyl-2-yl)-(4-difluoromethyl-pyridin-2-yl)-amine] | 0.84
18 | N#CC1(c2cc(Cl)nc(Nc3cc(C(F)F)ccn3)c2)CCOCC1 [Example 66, 4-[2-Chloro-6-(4-difluoromethyl-pyridin-2-ylamino)-pyridin-4-yl]-tetrahydro-pyran-4-carbonitrile] | 43
19 | N#Cc1ccnc(Nc2cc(C3CCN(C4COC4)CC3)cc(N3CCC4(CCOC4)C3)n2)c1 (stereo not shown) [Example 95, 2-[6-(2-Oxa-7-aza-spiro[4.4]non-7-yl)-1′-oxetan-3-yl-1′,2′,3′,4′,5′,6′-hexahydro-[4,4′]bipyridinyl-2-ylamino]-isonicotinonitrile] | 7.3
20 | N#Cc1ccnc(Nc2cc(C3CCOCC3)cc(N3CCC4(CCOC4)C3)n2)c1 (stereo not shown) [Example 85, 2-[6-(2-Oxa-7-aza-spiro[4.4]non-7-yl)-4-(tetrahydro-pyran-4-yl)-pyridin-2-ylamino]-isonicotinonitrile] | 15
21 | FC(F)c1ccnc(Nc2cc(C3CCN(C4COC4)CC3)cc(Cl)n2)c1 [Example 76, (6-Chloro-1′-oxetan-3-yl-1′,2′,3′,4′,5′,6′-hexahydro-[4,4′]bipyridinyl-2-yl)-(4-difluoromethyl-pyridin-2-yl)-amine] | 16
22 | C[C@@H]1CCCN1c1cc(C2(C#N)CCN(C)CC2)cc(Nc2cc(C#N)ccn2)n1 [Example 33, 2′-(4-Cyano-pyridin-2-ylamino)-1-methyl-6′-((R)-2-methyl-pyrrolidin-1-yl)-2,3,5,6-tetrahydro-1H-[4,4′]bipyridinyl-4-carbonitrile] | 0.17
23 | N#Cc1ccnc(Nc2cc(C3(C#N)CCOCC3)cc(N3CC4CC(F)(F)C4C3)n2)c1 (stereo not shown) [Example 69, 2-[4-(4-Cyano-tetrahydro-pyran-4-yl)-6-(6,6-difluoro-3-aza-bicyclo[3.2.0]hept-3-yl)-pyridin-2-ylamino]-isonicotinonitrile] | 4
24 | O=C([C@@H]1CCCCN1)N1CCC(c2ccnc(Nc3ccccn3)c2)CC1 [Example 146, (S)-piperidin-2-yl(4-(2-(pyridin-2-ylamino)pyridin-4-yl)piperidin-1-yl)methanone] | 2100
25 | N#Cc1ccnc(Nc2cc(C3CCOCC3)cc(N3CC4(CCC4(F)F)C3)n2)c1 [Example 103, 2-[6-(5,5-Difluoro-2-aza-spiro[3.3]hept-2-yl)-4-(tetrahydro-pyran-4-yl)-pyridin-2-ylamino]-isonicotinonitrile] | 16
26 | FC1CN(c2cc(C3CCN(C4COC4)CC3)cc(Nc3cc(C(F)F)ccn3)n2)C1 [Example 44, (4-Difluoromethyl-pyridin-2-yl)-[6-(3-fluoro-azetidin-1-yl)-1′-oxetan-3-yl-1′,2′,3′,4′,5′,6′-hexahydro-[4,4′]bipyridinyl-2-yl]-amine] | 6.8
27 | CC1CCCN1c1cc(C2CCN(C(=O)c3cn(C)cn3)C2)cc(Nc2cc(C(F)(F)F)ccn2)n1 (stereo not shown) [Example 133, (1-Methyl-1H-imidazol-4-yl)-{3-[2-(2-methyl-pyrrolidin-1-yl)-6-(4-trifluoromethyl-pyridin-2-ylamino)-pyridin-4-yl]-pyrrolidin-1-yl}-methanone] | 0.66
28 | C[C@@H]1CCCN1c1cc(C2(C#N)CCN(C3COC3)CC2)cc(Nc2cc(C#N)ccn2)n1 [Example 30, 2′-(4-Cyano-pyridin-2-ylamino)-6′-((R)-2-methyl-pyrrolidin-1-yl)-1-oxetan-3-yl-2,3,5,6-tetrahydro-1H-[4,4′]bipyridinyl-4-carbonitrile] | 0.17
